The text below walks through data of US8404643B2, “Metastin derivatives and use thereof” (priority 2005, dated 2013).

The target of the test is T1, hOT7T175 (Homo sapiens, UniProt Q969F8).
T1 construct: expressed in transfected cells
In words: Assay for intracellular Ca ion level-increasing activity using FLIPR. The format is cell-based. Conditions: hOT7T175/CHO cells, relative to Metastin (1-54). The method in brief: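 CHO/dhfr− cells stably transfected with hOT7T175, selected for high metastin response, loaded with Fluo3-AM for 1 h at 37 °C in HANKS/HBSS (pH 7.4) with probenecid. Peptides were diluted from 1×10^−3 M DMSO stock into HANKS/HBSS with 2.5 mM probenecid, 0.2% BSA, 0.1% CHAPS; intracellular Ca rise read by FLIPR.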

Square brackets hold non-standard residues; d marks the D form. Peptide text beside a SMILES is read from it. * marks the point of attachment. Phe(4-Cl) = N[C@@H](Cc1ccc(Cl)cc1)C(=O)O; Phe(3-F) = N[C@@H](Cc1cccc(F)c1)C(=O)O; Phe(4-F) = N[C@@H](Cc1ccc(F)cc1)C(=O)O; Phe(2-Me) = Cc1ccccc1C[C@H](N)C(=O)O; Arg(Me) = CNC(=N)NCCC[C@H](N)C(=O)O; His(π-Me) = Cn1cncc1C[C@H](N)C(=O)O; Hyp = O=C(O)[C@@H]1C[C@@H](O)CN1; Nva = CCC[C@H](N)C(=O)O; Aib = CC(C)(N)C(=O)O; Ahx = NCCCCCC(=O)O; NHPentyl = CCCCCN*; azaGly = NNC(=O)O; NHcPr = C1CC1N*

T1 sequence (Q969F8 whole entry L364H): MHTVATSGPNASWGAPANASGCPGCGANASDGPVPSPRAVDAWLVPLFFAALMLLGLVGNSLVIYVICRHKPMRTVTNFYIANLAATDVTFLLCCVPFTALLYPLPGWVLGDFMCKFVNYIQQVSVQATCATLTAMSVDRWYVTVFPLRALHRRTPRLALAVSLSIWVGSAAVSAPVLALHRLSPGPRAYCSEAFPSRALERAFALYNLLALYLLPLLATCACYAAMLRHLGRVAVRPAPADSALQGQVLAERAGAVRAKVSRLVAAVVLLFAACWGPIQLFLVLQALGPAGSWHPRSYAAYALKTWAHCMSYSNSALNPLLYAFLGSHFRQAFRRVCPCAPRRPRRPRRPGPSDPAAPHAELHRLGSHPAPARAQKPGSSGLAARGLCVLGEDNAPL

Turning to `CCC[C@H](NC(=O)[C@@H]1C[C@@H](O)CN1C(=O)[C@@H](Cc1ccc(O)cc1)NC(C)=O)C(=O)N[C@H](C(=O)N[C@@H](Cc1ccccc1)C(=O)NNC(=O)N[C@@H](CC(C)C)C(=O)N[C@@H](CCCNC(=N)NC)C(=O)N[C@@H](Cc1c[nH]c2ccccc12)C(N)=O)[C@@H](C)O` [Compound No. 886, Ac-D-Tyr-Hyp-Nva-Thr-Phe-AzaGly-Leu-Arg(Me)-Trp-NH2] (Ac-[dY][Hyp][Nva]TF[azaGly]L[Arg(Me)]W-NH2), the “Specific Activity: intracellular Ca ion level-increasing activity [specific activity to Metastin (1-54)]” value is 1.2. For `CNC(=N)NCCC[C@H](NC(=O)[C@H](CC(C)C)NC(=O)NNC(=O)[C@H](Cc1ccccc1)NC(=O)[C@H](NC(=O)[C@H](CC(N)=O)NC(=O)[C@@H]1C[C@@H](O)CN1C(=O)[C@@H](Cc1ccc(O)cc1)NC(C)=O)[C@H](C)O)C(=O)N[C@@H](Cc1c[nH]c2ccccc12)C(N)=O` [Compound No. 846, Ac-D-Tyr-Hyp-Asn-D-Thr-Phe-AzaGly-Leu-Arg(Me)-Trp-NH2] (Ac-[dY][Hyp]N[dT]F[azaGly]L[Arg(Me)]W-NH2), the “Specific Activity: intracellular Ca ion level-increasing activity [specific activity to Metastin (1-54)]” value amounted to 0.9. Consider `CNC(=N)NCCC[C@H](NC(=O)[C@H](CC(C)C)NC(=O)NNC(=O)[C@H](Cc1ccccc1)NC(=O)[C@@H](NC(=O)[C@H](CC(N)=O)NC(=O)[C@H](Cc1cncn1C)NC(=O)[C@@H](Cc1ccc(O)cc1)NC(C)=O)[C@@H](C)O)C(=O)N[C@@H](Cc1c[nH]c2ccccc12)C(N)=O` [Compound No. 773, Ac-D-Tyr-His(3Me)-Asn-Thr-Phe-AzaGly-Leu-Arg(Me)-Trp-NH2] (Ac-[dY][His(π-Me)]NTF[azaGly]L[Arg(Me)]W-NH2), for which the “Specific Activity: intracellular Ca ion level-increasing activity [specific activity to Metastin (1-54)]” value is reported as 1.1.

On to `CNC(=N)NCCC[C@H](NC(=O)[C@H](CC(C)C)NC(=O)NNC(=O)[C@H](Cc1cccc(F)c1)NC(=O)[C@@H](NC(=O)[C@H](CC(N)=O)NC(=O)[C@H](Cc1c[nH]c2ccccc12)NC(=O)[C@@H](Cc1ccc(O)cc1)NC(C)=O)[C@@H](C)O)C(=O)N[C@@H](Cc1c[nH]c2ccccc12)C(N)=O` [Compound No. 766, Ac-D-Tyr-Trp-Asn-Thr-Phe(3F)-AzaGly-Leu-Arg(Me)-Trp-NH2] (Ac-[dY]WNT[Phe(3-F)][azaGly]L[Arg(Me)]W-NH2), for which the “Specific Activity: intracellular Ca ion level-increasing activity [specific activity to Metastin (1-54)]” value came to 0.2. Turning to `CNC(=N)NCCC[C@H](NC(=O)[C@H](CC(C)C)NC(=O)NNC(=O)[C@H](Cc1ccccc1)NC(=O)[C@@H](NC(=O)[C@H](CC(=O)NC1CC1)NC(=O)[C@@H](Cc1c[nH]c2ccccc12)NC(=O)[C@@H](Cc1ccc(O)cc1)NC(C)=O)[C@@H](C)O)C(=O)N[C@@H](Cc1c[nH]c2ccccc12)C(N)=O` [Compound No. 715, Ac-D-Tyr-D-Trp-Asp(NHcPr)-Thr-Phe-AzaGly-Leu-Arg(Me)-Trp-NH2] (Ac-[dY][dW]D(NHcPr)TF[azaGly]L[Arg(Me)]W-NH2), the “Specific Activity: intracellular Ca ion level-increasing activity [specific activity to Metastin (1-54)]” value was 1.6. As for `CNC(=N)NCCC[C@H](NC(=O)[C@H](CC(C)C)NC(=O)NNC(=O)[C@H](Cc1ccc(Cl)cc1)NC(=O)[C@@H](NC(=O)[C@H](CC(N)=O)NC(=O)[C@@H]1C[C@@H](O)CN1C(=O)[C@@H](Cc1ccc(O)cc1)NC(C)=O)[C@@H](C)O)C(=O)N[C@@H](Cc1c[nH]c2ccccc12)C(N)=O` [Compound No. 767, Ac-D-Tyr-Hyp-Asn-Thr-Phe(4Cl)-AzaGly-Leu-Arg(Me)-Trp-NH2] (Ac-[dY][Hyp]NT[Phe(4-Cl)][azaGly]L[Arg(Me)]W-NH2), the “Specific Activity: intracellular Ca ion level-increasing activity [specific activity to Metastin (1-54)]” value turned out to be 1.5. For `CNC(=N)NCCC[C@H](NC(=O)[C@H](CC(C)C)NC(=O)NNC(=O)[C@H](Cc1ccccc1)NC(=O)[C@@H](NC(=O)[C@H](CC(N)=O)NC(=O)CCCCCN)[C@@H](C)O)C(=O)N[C@@H](Cc1c[nH]c2ccccc12)C(N)=O` [Compound No. 712, Acp-Asn-Thr-Phe-AzaGly-Leu-Arg(Me)-Trp-NH2] (H-[Ahx]NTF[azaGly]L[Arg(Me)]W-NH2), the “Specific Activity: intracellular Ca ion level-increasing activity [specific activity to Metastin (1-54)]” value is listed as 8.9. As to `CNC(=N)NCCC[C@H](NC(=O)[C@H](CC(C)C)NC(=O)NNC(=O)[C@H](Cc1ccccc1)NC(=O)[C@@H](NC(=O)[C@H](CC(N)=O)NC(=O)CCCCCNC(C)=O)[C@@H](C)O)C(=O)N[C@@H](Cc1c[nH]c2ccccc12)C(N)=O` [Compound No. 713, Ac-Acp-Asn-Thr-Phe-AzaGly-Leu-Arg(Me)-Trp-NH2] (Ac-[Ahx]NTF[azaGly]L[Arg(Me)]W-NH2), the “Specific Activity: intracellular Ca ion level-increasing activity [specific activity to Metastin (1-54)]” value worked out at 3.7. As to `CNC(=N)NCCC[C@H](NC(=O)[C@H](CC(C)C)NC(=O)NNC(=O)[C@H](Cc1ccccc1)NC(=O)[C@@H](NC(=O)[C@H](CC(N)=O)NC(=O)[C@H](C)NC(=O)[C@@H](Cc1ccc(O)cc1)NC(C)=O)[C@@H](C)O)C(=O)N[C@@H](Cc1c[nH]c2ccccc12)C(N)=O` [Compound No. 742, Ac-D-Tyr-Ala-Asn-Thr-Phe-AzaGly-Leu-Arg(Me)-Trp-NH2] (Ac-[dY]ANTF[azaGly]L[Arg(Me)]W-NH2), the “Specific Activity: intracellular Ca ion level-increasing activity [specific activity to Metastin (1-54)]” value was 2.3. With “Ac-D-Tyr-D-Trp-Asn-D-Pro-Phe-AzaGly-Leu-Arg(Me)-Trp-NH2 (Ac-[dY][dW]N[dP]F[azaGly]L[Arg(Me)]W-NH2; SMILES CNC(=N)NCCC[C@H](NC(=O)[C@H](CC(C)C)NC(=O)NNC(=O)[C@H](Cc1ccccc1)NC(=O)[C@H]1CCCN1C(=O)[C@H](CC(N)=O)NC(=O)[C@@H](Cc1c[nH]c2ccccc12)NC(=O)[C@@H](Cc1ccc(O)cc1)NC(C)=O)C(=O)N[C@@H](Cc1c[nH]c2ccccc12)C(N)=O) [Compound No. 719]” the figure was 3.8.

Turning to `CNC(=N)NCCC[C@H](NC(=O)[C@H](CC(C)C)NC(=O)NNC(=O)[C@H](Cc1ccc(F)cc1)NC(=O)[C@@H](NC(=O)[C@H](CC(N)=O)NC(=O)[C@H](CCCCN)NC(=O)[C@@H](Cc1ccc(O)cc1)NC(C)=O)[C@@H](C)O)C(=O)N[C@@H](Cc1c[nH]c2ccccc12)C(N)=O` [Compound No. 789, Ac-D-Tyr-Lys-Asn-Thr-Phe(4F)-AzaGly-Leu-Arg(Me)-Trp-NH2] (Ac-[dY]KNT[Phe(4-F)][azaGly]L[Arg(Me)]W-NH2), the “Specific Activity: intracellular Ca ion level-increasing activity [specific activity to Metastin (1-54)]” value is 3.4. As for `CNC(=N)NCCC[C@H](NC(=O)[C@H](CC(C)C)NC(=O)NNC(=O)[C@H](Cc1ccccc1C)NC(=O)[C@@H](NC(=O)[C@H](CC(N)=O)NC(=O)[C@@H]1C[C@@H](O)CN1C(=O)[C@@H](Cc1ccc(O)cc1)NC(C)=O)[C@@H](C)O)C(=O)N[C@@H](Cc1c[nH]c2ccccc12)C(N)=O` [Compound No. 870, Ac-D-Tyr-Hyp-Asn-Thr-Phe(2Me)-AzaGly-Leu-Arg(Me)-Trp-NH2] (Ac-[dY][Hyp]NT[Phe(2-Me)][azaGly]L[Arg(Me)]W-NH2), the “Specific Activity: intracellular Ca ion level-increasing activity [specific activity to Metastin (1-54)]” value is reported as 0.6. In the case of `CNC(=N)NCCC[C@H](NC(=O)[C@H](CC(C)C)NC(=O)NNC(=O)[C@H](Cc1cccc(F)c1)NC(=O)[C@@H](NC(=O)[C@H](CC(N)=O)NC(=O)[C@@H]1C[C@@H](O)CN1C(=O)[C@@H](Cc1ccc(O)cc1)NC(C)=O)[C@@H](C)O)C(=O)N[C@@H](Cc1c[nH]c2ccccc12)C(N)=O` [Compound No. 765, Ac-D-Tyr-Hyp-Asn-Thr-Phe(3F)-AzaGly-Leu-Arg(Me)-Trp-NH2] (Ac-[dY][Hyp]NT[Phe(3-F)][azaGly]L[Arg(Me)]W-NH2), the “Specific Activity: intracellular Ca ion level-increasing activity [specific activity to Metastin (1-54)]” value amounted to 2.6.

Take `CNC(=N)NCCC[C@H](NC(=O)[C@H](CC(C)C)NC(=O)NNC(=O)[C@H](Cc1ccccc1)NC(=O)[C@@H](NC(=O)[C@H](CC(N)=O)NC(=O)[C@H](CCC(=O)O)NC(=O)[C@@H](Cc1ccc(O)cc1)NC(C)=O)[C@@H](C)O)C(=O)N[C@@H](Cc1c[nH]c2ccccc12)C(N)=O` [Compound No. 746, Ac-D-Tyr-Glu-Asn-Thr-Phe-AzaGly-Leu-Arg(Me)-Trp-NH2] (Ac-[dY]ENTF[azaGly]L[Arg(Me)]W-NH2): the “Specific Activity: intracellular Ca ion level-increasing activity [specific activity to Metastin (1-54)]” value was 2.2. As for `CNC(=N)NCCC[C@H](NC(=O)[C@H](CC(C)C)NC(=O)NNC(=O)[C@H](Cc1ccccc1)NC(=O)[C@H](C)NC(=O)[C@H](CC(N)=O)NC(=O)[C@@H]1C[C@@H](O)CN1C(=O)[C@@H](Cc1ccc(O)cc1)NC(C)=O)C(=O)N[C@@H](Cc1c[nH]c2ccccc12)C(N)=O` [Compound No. 814, Ac-D-Tyr-Hyp-Asn-Ala-Phe-AzaGly-Leu-Arg(Me)-Trp-NH2] (Ac-[dY][Hyp]NAF[azaGly]L[Arg(Me)]W-NH2), the “Specific Activity: intracellular Ca ion level-increasing activity [specific activity to Metastin (1-54)]” value worked out at 0.5. `CCCCCNC(=O)C[C@H](NC(=O)[C@@H](Cc1c[nH]c2ccccc12)NC(=O)[C@@H](Cc1ccc(O)cc1)NC(C)=O)C(=O)N[C@H](C(=O)N[C@@H](Cc1ccccc1)C(=O)NNC(=O)N[C@@H](CC(C)C)C(=O)N[C@@H](CCCNC(=N)NC)C(=O)N[C@@H](Cc1c[nH]c2ccccc12)C(N)=O)[C@@H](C)O` [Compound No. 714, Ac-D-Tyr-D-Trp-Asp(NHPen)-Thr-Phe-AzaGly-Leu-Arg(Me)-Trp-NH2] (Ac-[dY][dW]D(NHPentyl)TF[azaGly]L[Arg(Me)]W-NH2): the “Specific Activity: intracellular Ca ion level-increasing activity [specific activity to Metastin (1-54)]” value is recorded as 0.7. On to `CNC(=N)NCCC[C@H](NC(=O)[C@H](CC(C)C)NC(=O)NNC(=O)[C@H](Cc1ccc(F)cc1)NC(=O)[C@@H](NC(=O)[C@H](CC(N)=O)NC(=O)C(C)(C)NC(=O)[C@@H](Cc1ccc(O)cc1)NC(C)=O)[C@@H](C)O)C(=O)N[C@@H](Cc1c[nH]c2ccccc12)C(N)=O` [Compound No. 791, Ac-D-Tyr-Aib-Asn-Thr-Phe(4F)-AzaGly-Leu-Arg(Me)-Trp-NH2] (Ac-[dY][Aib]NT[Phe(4-F)][azaGly]L[Arg(Me)]W-NH2), for which the “Specific Activity: intracellular Ca ion level-increasing activity [specific activity to Metastin (1-54)]” value is listed as 2.9.
